Consider 1 compound from US7604806B2, “Use of a lyophilisate of dedifferentiated plant cells for skin depigmentation and/or lightening” (Biotechmarine, priority 2003, dated 2009).

SMILES strings stand for the structures.

The assay deals with reconstructed epidermes SKINETHIC® integrating melanocytes (type IV). As to the kind of experiment: Assay of the melanin on reconstructed epidermes integrating melanocytes. Type of assay: cell-based, human. The protocol: The cells are grown for 10 days at the air/liquid interface, the growth medium is being changed daily. The thus formed type IV epidermis (=negroid) were used from the 10th day of culture. […] Marine cells obtained in Examples 1 and 2. The assessment of the synthesis of intracellular melanin (qualitative study) was carried out by spectrometry at 475 nm after that the cells were suspended, then dissolved in NaOH (1N) and dimethyl sulfoxide for 30 minutes.

On to `O=c1cc(CO)occ1O` [Positive control, kojic acid], for which, under “change of the rate of melanin compared to negative control”, the “Melanin, % vs negative control” value is listed as −44%. Where the note is “intracellular melanin, type IV epidermes, duplicate”, the “Melanin, Absorbance (475 nm)” value stood at 0.09 ± 0.01.
